Test results taken from patent publication US4272530A, “Δ^1,3,5(10) -Estratrienes” (Roussel Uclaf, priority 1977, dated 1981).

Experiments:
[1] = target: T1, specific uterine reception of estradiol (uterus cytosol) (Mus musculus, UniProt P19785); test: hormonal receptor method of Raynaud et al.: displacement of tritiated estradiol in uterus cytosol; format: binding, mice
T1 construct: the uterus was removed and homogenized in a buffered solution; from tissue; host or cells: uterus cytosol (105,000 g supernatant) of immature female mice, 18 to 21 days old
T1 sequence (P19785 1-599): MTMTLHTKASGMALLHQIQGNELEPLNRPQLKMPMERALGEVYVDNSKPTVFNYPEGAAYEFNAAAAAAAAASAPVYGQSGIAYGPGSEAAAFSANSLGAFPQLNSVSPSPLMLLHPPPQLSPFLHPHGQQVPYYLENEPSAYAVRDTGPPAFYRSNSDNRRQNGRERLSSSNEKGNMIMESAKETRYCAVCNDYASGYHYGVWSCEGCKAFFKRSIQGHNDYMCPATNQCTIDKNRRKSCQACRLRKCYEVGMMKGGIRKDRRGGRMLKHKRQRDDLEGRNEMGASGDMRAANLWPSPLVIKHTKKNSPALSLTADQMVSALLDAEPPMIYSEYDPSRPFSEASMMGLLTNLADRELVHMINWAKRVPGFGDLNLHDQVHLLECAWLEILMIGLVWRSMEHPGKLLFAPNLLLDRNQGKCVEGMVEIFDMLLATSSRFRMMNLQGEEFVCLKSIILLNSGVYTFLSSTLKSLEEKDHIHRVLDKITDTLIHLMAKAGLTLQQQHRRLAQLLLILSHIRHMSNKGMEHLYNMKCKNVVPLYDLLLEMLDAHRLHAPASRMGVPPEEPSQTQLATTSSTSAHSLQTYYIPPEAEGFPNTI
Method: The estrogenic activity was determined for 11β-vinyl-17α-ethynyl-^1,3,5(10) -estratriene-3,17β-diol was determined by the hormonal receptor method of Raynaud et al. [J. Ster. Biochem., Vol. 6 (1975), p. 615-622]. Immature female mice aged 18 to 21 days old were sacrificed and the uterus was removed and homogenized in a buffered solution of […] of tromethamine, 0.25 M of saccharose and a pH of 7.4 with hydrochloric acid. The homogenate was centrifuged at 105,000 g per hour and the surnageant or cytosol was adjusted to a dilution of 1/25 (weight/volume). […] The radioactivity of the tritiated product R was determined in 2 hours by the technique of adsorption on carbondextran (1.25%-0.625%). The plots were the curves representing the percentage of tritiated product R as a function of the log of the concentration of cold product R or the test product and the I50 straight line parallel to the axis of the abcisses and ordinates [formula] B/T max. is the percentage of tied tritiated product R when the product is not added and B/T min. is the percentage of tied tritiated product R when the maximum amount of cold product R is added.

[2] = system: female mice; test: estrogenic (uterotrophic) activity by the method of Rubin, uterus weight; format: in vivo; settings: for Weight of uterus: female mice 19-21 days old, killed on 4th day, control 11.4 ± 0.5
Method: The estrogenic activity of the product of Example 1 was also determined by the method of Rubin [Endocrinology, Vol. 49 (1951), p. 429] in which female mice 19-21 days old received once a day for 3 days a subcutaneous injection of the test product. The animals were killed on the 4th day and the uterus was removed, dissected and weighed. The test product was administered in a volume of 0.1 ml of oily solution at doses of 0.01γ, 0.03γ, 0.09γ and 0.27γ.

Compound: C#C[C@]1(O)CC[C@H]2[C@@H]3CCc4cc(O)ccc4[C@H]3[C@@H](C=C)C[C@@]21C [Example 1, 11β-vinyl-17α-ethynyl-Δ^1,3,5(10) -estratriene-3,17β-diol]
- affinity for specific uterine reception of estradiol compared with estradiol ([1]; conclusion from Table III): greater affinity for specific uterine reception of estradiol than estradiol
- ARL (relative affinity of the test product) ([1]; immature female mouse uterus cytosol, tritiated estradiol, 25° C. for 5 hours, estradiol = 100): 240
- uterotrophic activity ([2]; conclusion from Table IV): clear uterotrophic activity
- Weight of uterus ([2]; dose 0.01γ subcutaneous once a day for 3 days): 25.8 ± 1.7 mg
- Weight of uterus ([2]; dose 0.03γ subcutaneous once a day for 3 days): 90.1 ± 5.7 mg
- Weight of uterus ([2]; dose 0.09γ subcutaneous once a day for 3 days): 128.8 ± 12.1 mg
- Weight of uterus ([2]; dose 0.27γ subcutaneous once a day for 3 days): 107.6 ± 7.4 mg
